Results as given in article PMC4019984, “Kinase and channel activity of TRPM6 are co-ordinated by a dimerization motif and pocket interaction” (Biochemical Journal, 2014).

Legend:
Type in all cases: binding, human
[1] = test system: full-length FLAG-tagged wild-type TRPM6; experiment: Peptide pull-down, full-length wild-type TRPM6; conditions: full-length wild-type TRPM6, HEK-293 lysate, 3 μg peptide, 4°C; anti-FLAG immunoblot
Procedure: (§1) The peptides biotin-C6-[…]-TIPFTPVQLFAGEEITV (wild-type) and biotin-C6-LKSPQE-[…] (mutant) were purchased from GL Biochem. For a peptide pull-down, 1–5 mg of lysate was incubated with 3 μg of the respective peptide for 10 min at 4°C under gentle agitation, followed by 5 min of incubation with 10–20 μl of streptavidin beads at 4°C. The immunoprecipitates were washed three times with lysis buffer containing 0.15 M NaCl and then twice with buffer A. Proteins were eluted by resuspending washed immunoprecipitates in 30 μl of SDS sample buffer.
(§2) Figure 2 Identification of dimerization motif residues in TRPM6 (A) Structural model of TRPM7 α-kinase depicting the N-terminal non-catalytic α-helix of one monomer that interacts with the kinase segment of the other monomer. (B) Fluorescence polarization analysis of wild-type (WT) and mutant (Mut) dimerization motif peptides with E. coli-purified GST-tagged TRPM6-(1730–end). […] The samples were analysed by immunoblotting with anti-GST antibody (top panel). […] Proteins were separated by SDS/PAGE, stained with Coomassie Blue (top and middle gels) and MBP phosphorylation was detected by autoradiography (bottom gel). […] Proteins were separated by SDS/PAGE, stained with Coomassie Blue (top and middle gels) and MBP phosphorylation was detected by autoradiography (bottom gel). […] The pull-down samples were analysed by immunoblotting with anti-FLAG antibody (top panel). […]

[2] = test system: full-length FLAG-tagged kinase-inactive TRPM6; experiment: Peptide pull-down, full-length kinase-inactive TRPM6; conditions: full-length kinase-inactive TRPM6, HEK-293 lysate, 3 μg peptide, 4°C; anti-FLAG immunoblot
Procedure: as §1, §2

[3] = test system: GST-tagged TRPM6-(1730–end) L1840A; experiment: Peptide pull-down, L1840A mutant; conditions: HEK-293 lysate, 3 μg peptide, 4°C, anti-GST immunoblot
Procedure: as §1, with “buffer. […]” for “buffer.”
Figure 3 Analysis of the dimerization pocket residues (A) Structural model of TRPM6 based on TRPM7 α-kinase depicting the binding of Leu^1718 and Leu^1721 to other residues in the α-kinase domain. […] The samples were analysed by immunoblotting with anti-GST antibody (top panel). […] (C) Fluorescence polarization analysis of the dimerization motif peptide with E. coli purified GST-tagged TRPM6-(1730–end) and indicated mutants. […] Proteins were separated by SDS/PAGE, stained with Coomassie Blue (top and middle panels) and MBP phosphorylation was detected by autoradiography (bottom panel). […] Proteins were separated by SDS/PAGE, stained with Coomassie Blue (top and middle gels) and MBP phosphorylation was detected by autoradiography (bottom gel). […]

Substance: biotin-C6-LKSPQEPHHHYSAIERNNLMRLSQ-TIPFTPVQLFAGEEITV [biotinylated dimerization motif peptide, biotin-C6 wild-type dimerization motif peptide; conjugated to streptavidin–Sepharose]
- interaction with biotinylated dimerization motif peptide (pull-down) [1]: do not interact
- interaction with biotinylated dimerization motif peptide (pull-down) [2]: do not interact
- binding to biotinylated dimerization motif peptide (pull-down) [3]: abolished binding to the peptide
